We go through one molecule from paper PMC10796634, “Discovery of plant chemical defence mediated by a two-component system involving β-glucosidase in Panax species” (Nature Communications, 2024).

In this assay the test system is PnGH1. The assay can be described thus: HPLC quantification of product Fd, Michaelis-Menten fit. It counts as biochemical, Panax notoginseng. Particulars: pH 5.0 (50 mM Tris-HCl), 60 °C, 30 min, 30–8000 µM Rb3.

On to `CC(C)=CCC[C@](C)(O[C@@H]1O[C@H](CO[C@@H]2OC[C@@H](O)[C@H](O)[C@H]2O)[C@@H](O)[C@H](O)[C@H]1O)[C@H]1CC[C@]2(C)[C@@H]1[C@H](O)C[C@@H]1[C@@]3(C)CC[C@H](O[C@@H]4O[C@H](CO)[C@@H](O)[C@H](O)[C@H]4O[C@@H]4O[C@H](CO)[C@@H](O)[C@H](O)[C@H]4O)C(C)(C)[C@@H]3CC[C@]12C` [compound 4, Rb3], for which the Km came to 677 ± 38.5 µM.
